ChEMBL document CHEMBL1687866, “Efficient microwave-assisted synthesis of novel 3-aminohexahydrocoumarin derivatives and evaluation on their cytotoxicity” (Eur J Med Chem, 2011)
In brackets after ≈: the same amount, converted by molar mass.

Experiments:
[1] = test system: SGC-7901; assay: Cytotoxicity against human SGC7901 cells after 20 hrs by MTT assay; format: functional, cell-based; details: SGC-7901, 20 h
[2] = Cytotoxicity against human SW1116 cells assessed as cell viability rate at 10 ug/ml after 24 hrs by MTT assay; format: functional, SW 1116
[3] = Cytotoxicity against human SW1116 cells assessed as cell viability rate at 0.1 ug/ml after 24 hrs by MTT assay; format: functional, SW 1116
[4] = Cytotoxicity against human SW1116 cells assessed as cell viability rate at 1 ug/ml after 24 hrs by MTT assay; format: functional, SW 1116

Row | SMILES | IC50 [1] [µg/mL] | Cell viability [2] [%] | Cell viability [3] [%] | Cell viability [4] [%]
1 | CC1(C)CC(=O)C2=C(C1)OC(=O)C(NC(=O)c1ccccc1)C2c1ccc([N+](=O)[O-])cc1 (mixture of isomers) | 0.905 | 46.6 | 107.38 | 73.4
2 | CC1(C)CC(=O)C2=C(C1)OC(=O)C(NC(=O)c1ccccc1)C2c1ccco1 (stereo not drawn) | 0.259 (≈ 0.683 µM) | 42.02 | 79.26 | 67.67
3 | CC1(C)CC(=O)C2=C(C1)OC(=O)C(NC(=O)c1ccccc1)C2c1cccs1 (mixture of isomers) | 0.612 | 50.51 | 94.51 | 104.31
4 | O=C1CCCC2=C1C(c1ccc([N+](=O)[O-])cc1)C(NC(=O)c1ccccc1)C(=O)O2 (mixture of isomers) | 1.09 | 55.22 | 73.6 | 100.6
5 | O=C1CCCC2=C1C(c1ccccc1Br)C(NC(=O)c1ccccc1)C(=O)O2 (mixture of isomers) | 3.94 | 99.27 | 50.51 | 92.19
6 | O=C1CCCC2=C1C(c1ccco1)C(NC(=O)c1ccccc1)C(=O)O2 (mixture of isomers) | 1.3 | 74.22 | 95.53 | 97.92
7 | CC1(C)CC(=O)C2=C(C1)OC(=O)C(NC(=O)c1ccccc1)C2c1ccccc1Br (mixture of isomers) | 5.13 | 55.74 | 102.11 | 99.3
8 | CC1(C)CC(=O)C2=C(C1)OC(=O)C(NC(=O)c1ccccc1)C2c1ccccc1Cl (mixture of isomers) | 0.239 | 85.08 | 114.23 | 97.92
9 | CC1(C)CC(=O)C2=C(C1)OC(=O)C(NC(=O)c1ccccc1)C2c1ccc(Cl)cc1 (mixture of isomers) | > 100 | 64.34 | 77.19 | 77.81
10 | Cc1ccc(C2C3=C(CCCC3=O)OC(=O)C2NC(=O)c2ccccc2)cc1 (mixture of isomers) | 1.86 | 107.87 | 113.97 | 106.66
11 | COc1cc(C2C3=C(CC(C)(C)CC3=O)OC(=O)C2NC(=O)c2ccccc2)cc(OC)c1OC (mixture of isomers) | 0.158 | 92.18 | 91.48 | 81.59
12 | O=C1CCCC2=C1C(c1ccccc1Cl)C(NC(=O)c1ccccc1)C(=O)O2 (mixture of isomers) | 0.226 | 87.56 | 109.5 | 102.59
13 | O=C1CCCC2=C1C(c1ccc(F)cc1)C(NC(=O)c1ccccc1)C(=O)O2 (mixture of isomers) | 0.812 | 83.22 | 90.86 | 91.07
14 | O=C1CCCC2=C1C(c1cccs1)C(NC(=O)c1ccccc1)C(=O)O2 (mixture of isomers) | 0.701 | 69.73 | 79.97 | 81.65
15 | CC1(C)CC(=O)C2=C(C1)OC(=O)C(NC(=O)c1ccccc1)C2c1ccc(F)cc1 (mixture of isomers) | 0.436 | 59.03 | 95.76 | 91.39
16 | COc1cccc2c1C(=O)c1c(O)c3c(c(O)c1C2=O)C[C@@](O)(C(=O)CO)C[C@@H]3O[C@H]1C[C@H](N)[C@H](O)[C@H](C)O1.Cl [DOXORUBICIN HYDROCHLORIDE] | – | 67.34 | – | –
17 | Cc1ccc(C2C3=C(CC(C)(C)CC3=O)OC(=O)C2NC(=O)c2ccccc2)cc1 (mixture of isomers) | 2.69 | 82.67 | 77.88 | 83.63
18 | COc1cc(C2C3=C(CCCC3=O)OC(=O)C2NC(=O)c2ccccc2)cc(OC)c1OC (mixture of isomers) | 1.21 | 94.07 | 110.34 | 109.73
19 | O=C1CCCC2=C1C(c1ccc(Cl)cc1)C(NC(=O)c1ccccc1)C(=O)O2 (mixture of isomers) | > 100 | 69.78 | 91.48 | 89.77
